The numbers were not newly measured in patent US11111250B2 (SHILPA MEDICARE LIMITED, priority 2017, dated 2021), which cites them from elsewhere.

For series [1] the following is noted: aqueous media, pH dependence.
The conditions of series [2]: long term and accelerated stability studies, stored in the proposed packaging.

Take Ribociclib mono succinate: the solubility entry in series [1] was “soluble in acidic aqueous media, becoming less soluble as pH increases”.
For the substance “Ribociclib mono succinate [Ribociclib mono succinate form A]”, the polymorphic stability result in series [2] was “stable and not to convert into other polymorphic forms”.
